From PMC12081876, “Identification of PTGR2 inhibitors as a new therapeutic strategy for diabetes and obesity” (EMBO Molecular Medicine, 2025)
“And” between values parts separate entries of the source, which are not always exact repeats. Equal values may be shown once.

Experiments:
[1] = system: HFHSD-fed obese C57BL6/J mice; experiment: Body weight / diet-induced obesity in HFHSD-fed mice; assay type: in vivo, mouse; conditions: Figure 5J, 100 mg/kg/day, in g (unit assumed)
[2] = system: HFHSD-fed obese C57BL6/J mice; experiment: Intraperitoneal glucose tolerance test (ipGTT); assay type: in vivo, mouse; parameters: Figure 2H Average (glucose, ipGTT) / ipGTT / ipGTT glucose, Average / Blood glucose during glucose tolerance test (Figure 5L), Average: unit not given here; conditions: 100 mg/kg/day
Description: (§1) Glucose tolerance was evaluated by the oral (OGTT) and intraperitoneal glucose tolerance test (ipGTT) after a 6-h fast. For the OGTT, glucose water (1 mg/g) was given by oral gavage, and tail blood glucose was measured with a glucometer (ACCU-CHEK Performa, Roche) at 0, 15, 30, 45, 60, 90, and 120 min. For the ipGTT, tail blood glucose was measured at 0, 15, 30, 45, 60, 90, and 120 min after intraperitoneal injection of glucose water (1 mg/g). For the insulin tolerance test (ITT), mice were fasted for 4 h and then injected intraperitoneally with 1 U/kg of insulin (Humulin R, Eli Lilly). Tail blood glucose was measured at 0, 15, 30, 45, 60, 90, 120, and 180 min.

[3] = system: HFHSD-fed obese C57BL6/J mice; experiment: Insulin tolerance test (ITT); assay type: in vivo, mouse; parameters: Figure 2I Average (glucose, ITT) / ITT / ITT glucose, Average / Blood glucose during insulin tolerance test (Figure 5M), Average: unit not given here; conditions: 100 mg/kg/day
Description: as §1

[4] = system: differentiated 3T3-L1 adipocytes; experiment: Insulin-stimulated glucose uptake assay by (3H)2-deoxyglucose; assay type: cell-based, mouse; parameters: insulin-stimulated glucose uptake, Fig 1J replicates / Figure 5E raw value, insulin-stimulated glucose uptake (replicates): unit not given here
Description: The cell lines, which were tested for mycoplasma contamination and authenticated, were purchased from the Bioresource Collection and Research Center, Taiwan. All cells were cultured at 37 °C, 5% CO2 in a humidified incubator. HEK293T cells were maintained in DMEM (cat. no. SH30003.02, HyClone) supplemented with 10% fetal bovine serum (FBS) (cat. no. 04-001-1A, Biological Industries) and 1% antibiotic/antimycotic solution (cat. no. SV30079.01, HyClone). 3T3-L1 preadipocytes were maintained at ~70% confluence in DMEM with 10% calf serum (cat. no. 16170078, Gibco) and 1% antibiotic/antimycotic solution. For adipocyte differentiation, confluent 3T3-L1 cells (defined as day 0) were exposed to an induction medium containing 10% FBS, 1 μM dexamethasone (cat. no. D4902, Sigma-Aldrich), and 1 μg/ml insulin (Humulin R, Eli Lilly) in DMEM with or without 0.5 mM isobutyl-methylxanthine (cat. no. sc-201188A, Santa Cruz Biotechnology) as indicated. After two days, the medium was replaced with DMEM containing 10% FBS and 1 μg/ml insulin and was replenished every two days until assay.
Differentiated 3T3-L1 cells were starved with serum-free DMEM containing 0.2% BSA (cat. no. A9647, Sigma-Aldrich). Cells were rinsed twice with KRH buffer (137 mM NaCl, 4.7 mM KCl, 1.85 mM CaCl2, 1.3 mM MgSO4, 50 mM HEPES and 0.1% BSA, pH 7.4), and treated with or without […] insulin in the presence of 20 μM cytochalasin B (cat. no. 11328, Cayman Chemical), a GLUT inhibitor for measuring non-specific glucose uptake, for 30 min. Cells were then incubated with 0.5 μCi [^3H]-2-deoxy-D-Glucose (cat. no. NET328A001MC, PerkinElmer) and 0.1 μM 2-deoxy-D-Glucose (2DG) (cat. no. 14325, Cayman Chemical) for 5 min. Uptake of 2DG was terminated by rapidly removing medium and washing with ice-cold PBS three times. Cells were lysed with 0.1% SDS, and the radioactivity was measured using a liquid scintillation counter. Insulin-mediated glucose uptake was calculated by subtracting insulin-treated glucose uptake with basal glucose uptake.

SMILES: Cc1[nH]c2nc(C(C)N3CCN(c4ccccc4)CC3)nn2c(=O)c1Cc1ccc(F)cc1 (stereo not shown) [BPRPT245]
- Body weight, Average ([1]; week 0): 30.59
- Body weight, Average ([1]; week 1): 31.2
- Body weight, Average ([1]; week 2): 31.673
- Body weight, Average ([1]; week 3): 32.167
- Body weight, Average ([1]; week 4): 32.92
- Body weight, Average ([1]; week 5): 32.837
- Body weight, Average ([1]; week 6): 33.673
- Body weight, Average ([1]; week 7): 33.323
- Body weight, Average ([1]; week 8): 33.923
- Body weight, Average ([1]; week 9): 34.59
- Body weight, Average ([1]; week 10): 35.623
- Body weight, Average ([1]; week 11): 36.193
- Body weight, Average ([1]; week 12): 37.113
- Body weight, Average ([1]; week 13): 36.957
- Body weight, Average ([1]; week 14): 38.33
- Body weight, Average ([1]; week 15): 38.607
- Body weight, Average ([1]; week 16): 39.303
- Body weight, Average ([1]; week 17): 40.533
- Body weight, Average ([1]; week 18): 40.933
- Body weight, Average ([1]; week 19): 42.11
- Body weight, Average ([1]; week 20): 41.483
- Body weight, Average ([1]; week 21): 42.933
- Body weight, Average ([1]; week 22): 43.33
- Body weight, Average ([1]; week 23): 44.06
- Body weight, Average ([1]; week 24): 44.36
- Body weight, Average ([1]; week 25): 45.28
- Blood glucose during glucose tolerance test (Figure 5L), Average ([2]; time 0): 153.667
- Blood glucose during glucose tolerance test (Figure 5L), Average ([2]; time 15): 305
- Blood glucose during glucose tolerance test (Figure 5L), Average ([2]; time 30): 285.933
- Blood glucose during glucose tolerance test (Figure 5L), Average ([2]; time 45): 242.333
- Blood glucose during glucose tolerance test (Figure 5L), Average ([2]; time 60): 219.733
- Blood glucose during glucose tolerance test (Figure 5L), Average ([2]; time 90): 192.133
- Blood glucose during glucose tolerance test (Figure 5L), Average ([2]; time 120): 185.4
- Blood glucose during insulin tolerance test (Figure 5M), Average ([3]; time 0): 210.867
- Blood glucose during insulin tolerance test (Figure 5M), Average ([3]; time 15): 143.067
- Blood glucose during insulin tolerance test (Figure 5M), Average ([3]; time 30): 94.067
- Blood glucose during insulin tolerance test (Figure 5M), Average ([3]; time 45): 78.667
- Blood glucose during insulin tolerance test (Figure 5M), Average ([3]; time 60): 69.8
- Blood glucose during insulin tolerance test (Figure 5M), Average ([3]; time 90): 59.667
- Blood glucose during insulin tolerance test (Figure 5M), Average ([3]; time 120): 71.467
- Blood glucose during insulin tolerance test (Figure 5M), Average ([3]; time 180): 90.933

SMILES: CCCCCC(=O)CC[C@H]1[C@H](O)CC(=O)[C@@H]1C/C=C\CCCC(=O)O [13,14-dihydro-15-keto-PGE2]
- insulin-stimulated glucose uptake, Fig 1J replicates ([4]; 13,14dh-15kPGE2 5): 2.459 and 1.953 and 1.121 and 1.067
- insulin-stimulated glucose uptake ([4]; differentiated 3T3-L1 adipocytes): showed little effect
